ChEMBL document CHEMBL1201862, “PubChem BioAssay data set” (2004)
One block for each compound: values may come before it. Active and inactive are the calls of the source.

How the values were obtained:
[1] = HEK293T cytotoxicity, dose response, cytotoxicity control for miR-122 modulator project, cell-based, inhibitor set, cherry-pick, set 2 (AID 720697); type: functional
[2] = human group III sPLA2 inhibitors, dose response, biochemical, QFRET, IC50 (AID 743457);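 note: green fluorescence rise as the enzyme cleaves BODIPY PC-A2 in liposomes; potency for inhibition of the enzyme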
[3] = biological target: FAD-linked sulfhydryl oxidase ALR (Homo sapiens, UniProt P55789); assay: inhibitors of human ALR sulfhydryl oxidase, dose response, biochemical, H2O2 detection, luminescence, cherry-pick (AID 493248)
Chain of FAD-linked sulfhydryl oxidase ALR (P55789 whole entry): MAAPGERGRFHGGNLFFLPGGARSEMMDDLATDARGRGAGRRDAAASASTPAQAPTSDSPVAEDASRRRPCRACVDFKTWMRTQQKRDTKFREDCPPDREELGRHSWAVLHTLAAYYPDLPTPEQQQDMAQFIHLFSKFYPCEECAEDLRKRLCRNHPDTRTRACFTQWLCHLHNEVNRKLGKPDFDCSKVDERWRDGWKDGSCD

[4] = biological target: T1, Rac GTPase-activating protein 1 (Homo sapiens, UniProt Q9H0H5); assay: MgcRacGAP GTPase-activating activity inhibitors, confirmation, biochemical, ADP Hunter fluorescence, primary and confirmatory (AID 624330); type: functional
T1 sequence (Q9H0H5 whole entry): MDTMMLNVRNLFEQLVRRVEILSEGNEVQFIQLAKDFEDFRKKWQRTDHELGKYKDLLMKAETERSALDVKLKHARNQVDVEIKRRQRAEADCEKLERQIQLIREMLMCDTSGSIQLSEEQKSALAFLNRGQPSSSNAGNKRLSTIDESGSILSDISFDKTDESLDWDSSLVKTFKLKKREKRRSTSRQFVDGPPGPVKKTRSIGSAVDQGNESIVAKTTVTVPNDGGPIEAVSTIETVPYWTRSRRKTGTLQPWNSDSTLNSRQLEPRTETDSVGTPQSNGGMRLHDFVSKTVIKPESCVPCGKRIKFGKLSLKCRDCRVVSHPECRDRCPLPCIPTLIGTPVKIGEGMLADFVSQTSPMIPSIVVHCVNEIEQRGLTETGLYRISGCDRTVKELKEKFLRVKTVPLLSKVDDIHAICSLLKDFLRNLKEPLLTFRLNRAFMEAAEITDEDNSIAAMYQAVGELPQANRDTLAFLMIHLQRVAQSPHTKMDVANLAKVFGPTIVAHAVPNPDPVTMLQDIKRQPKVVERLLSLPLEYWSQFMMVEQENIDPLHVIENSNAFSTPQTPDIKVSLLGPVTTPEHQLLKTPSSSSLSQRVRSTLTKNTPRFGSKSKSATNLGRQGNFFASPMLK

Albumin = Albumin (Bos taurus, UniProt P02769); assay: Counterscreen for inhibitors of T-cell receptor (TCR)-CD3 interaction: Fluorescence-based biochemical high throughput dose response assay to identify inhibitors of T-cell receptor (TCR)-CD3 interaction using a TAMRA-labeled BSA probe.; type: functional
Chain of Albumin (P02769 whole entry): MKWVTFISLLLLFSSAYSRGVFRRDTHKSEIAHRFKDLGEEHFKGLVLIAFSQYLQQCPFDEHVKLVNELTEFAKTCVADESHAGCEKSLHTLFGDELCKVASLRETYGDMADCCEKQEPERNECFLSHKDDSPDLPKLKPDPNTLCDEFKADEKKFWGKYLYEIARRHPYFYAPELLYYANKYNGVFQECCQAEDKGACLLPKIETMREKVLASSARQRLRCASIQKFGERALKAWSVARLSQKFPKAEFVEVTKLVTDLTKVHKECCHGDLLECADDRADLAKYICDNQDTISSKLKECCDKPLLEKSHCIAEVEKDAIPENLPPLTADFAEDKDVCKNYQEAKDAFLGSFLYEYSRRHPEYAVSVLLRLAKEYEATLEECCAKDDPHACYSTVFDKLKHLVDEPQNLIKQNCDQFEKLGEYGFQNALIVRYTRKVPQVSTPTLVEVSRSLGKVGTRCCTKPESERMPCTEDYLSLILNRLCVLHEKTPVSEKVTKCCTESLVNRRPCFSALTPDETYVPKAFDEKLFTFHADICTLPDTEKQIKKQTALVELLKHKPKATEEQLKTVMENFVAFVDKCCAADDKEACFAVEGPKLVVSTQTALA

[5] = biological target: Nuclear receptor subfamily 5 group A member 2 (Homo sapiens, UniProt O00482); type: functional, cell-based;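 note: HEK293T cells transfected with LRH-1 and a StAR promoter luciferase reporter; potency for inhibitors that lower LRH-1 driven reporter light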
Chain of Nuclear receptor subfamily 5 group A member 2 (O00482 whole entry, the tested form may be a part): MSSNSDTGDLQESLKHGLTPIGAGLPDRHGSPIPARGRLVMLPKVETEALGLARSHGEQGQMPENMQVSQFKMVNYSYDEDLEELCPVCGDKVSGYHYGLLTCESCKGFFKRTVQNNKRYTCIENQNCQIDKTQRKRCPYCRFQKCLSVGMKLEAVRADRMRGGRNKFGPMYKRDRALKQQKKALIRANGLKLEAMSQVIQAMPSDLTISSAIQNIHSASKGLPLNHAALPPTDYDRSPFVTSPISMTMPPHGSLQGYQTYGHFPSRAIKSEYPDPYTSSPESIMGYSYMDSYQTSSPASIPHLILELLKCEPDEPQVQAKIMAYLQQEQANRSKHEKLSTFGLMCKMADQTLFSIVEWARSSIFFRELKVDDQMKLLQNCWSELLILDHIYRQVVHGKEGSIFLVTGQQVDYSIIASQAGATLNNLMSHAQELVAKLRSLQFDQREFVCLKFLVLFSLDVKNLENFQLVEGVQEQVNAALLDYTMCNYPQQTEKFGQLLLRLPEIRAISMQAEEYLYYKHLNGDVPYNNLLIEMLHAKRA

[6] = biological target: T2, Carboxy-terminal domain RNA polymerase II polypeptide A small phosphatase 1 (Homo sapiens, UniProt Q9GZU7); assay: inhibitors of CTDSP1, concentration-response testing, biochemical assay, absorbance-based, actives from ultra-high-throughput screening (AID 540297); type: functional
T2 sequence (Q9GZU7 whole entry): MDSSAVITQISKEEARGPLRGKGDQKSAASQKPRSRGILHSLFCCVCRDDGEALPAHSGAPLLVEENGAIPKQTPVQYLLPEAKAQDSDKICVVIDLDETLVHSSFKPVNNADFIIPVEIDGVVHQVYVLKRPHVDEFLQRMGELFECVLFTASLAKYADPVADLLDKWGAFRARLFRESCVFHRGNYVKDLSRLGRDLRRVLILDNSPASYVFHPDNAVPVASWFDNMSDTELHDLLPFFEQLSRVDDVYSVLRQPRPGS

Steroidogenic factor 1 = Steroidogenic factor 1 (Homo sapiens, UniProt Q13285); assay: Counterscreen for inverse agonists of the liver receptor homolog-1 (LRH-1; NR5A2): Luminescence-based cell-based high throughput dose response assay to identify inverse agonists of the Steroidogenic Factor 1 Nuclear Receptor (SF1; NR5A1).; type: functional
Chain of Steroidogenic factor 1 (Q13285 whole entry): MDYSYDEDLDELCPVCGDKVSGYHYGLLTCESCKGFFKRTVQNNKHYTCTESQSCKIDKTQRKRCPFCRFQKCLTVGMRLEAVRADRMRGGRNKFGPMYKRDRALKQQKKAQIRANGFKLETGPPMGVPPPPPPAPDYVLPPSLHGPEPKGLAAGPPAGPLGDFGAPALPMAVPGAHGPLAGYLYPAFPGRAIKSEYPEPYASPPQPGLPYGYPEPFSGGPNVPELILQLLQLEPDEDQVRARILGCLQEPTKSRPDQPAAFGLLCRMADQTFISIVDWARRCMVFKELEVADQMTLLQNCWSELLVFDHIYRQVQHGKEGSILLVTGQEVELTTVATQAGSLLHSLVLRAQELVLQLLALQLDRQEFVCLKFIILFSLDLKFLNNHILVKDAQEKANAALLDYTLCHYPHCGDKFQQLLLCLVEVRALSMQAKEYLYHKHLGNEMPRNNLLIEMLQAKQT

[7] = biological target: T3, Low molecular weight phosphotyrosine protein phosphatase (Homo sapiens, UniProt P24666); type: functional; conditions: read-out: IC50_Mean;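 note: Dose-response confirmation assay measuring inhibition of LMPTP enzyme activity by fluorescence intensity read-out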
T3 sequence (P24666 whole entry): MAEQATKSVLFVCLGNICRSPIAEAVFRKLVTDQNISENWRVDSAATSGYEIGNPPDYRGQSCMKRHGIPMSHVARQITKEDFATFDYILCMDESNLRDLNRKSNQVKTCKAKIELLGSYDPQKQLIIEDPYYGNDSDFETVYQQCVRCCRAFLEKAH

cells [8] = type: functional, cell-based
[9] = biological target: T4, Trace amine-associated receptor 1 (Homo sapiens, UniProt Q96RJ0); assay: Counterscreen for agonists of the human trace amine associated receptor 1 (hTAAR1): Fluorescence-based cell-based high throughput dose response assay to identify hTAAR1 agonist that also desensitize TAAR1 receptor response.; type: functional
T4 sequence (Q96RJ0 whole entry): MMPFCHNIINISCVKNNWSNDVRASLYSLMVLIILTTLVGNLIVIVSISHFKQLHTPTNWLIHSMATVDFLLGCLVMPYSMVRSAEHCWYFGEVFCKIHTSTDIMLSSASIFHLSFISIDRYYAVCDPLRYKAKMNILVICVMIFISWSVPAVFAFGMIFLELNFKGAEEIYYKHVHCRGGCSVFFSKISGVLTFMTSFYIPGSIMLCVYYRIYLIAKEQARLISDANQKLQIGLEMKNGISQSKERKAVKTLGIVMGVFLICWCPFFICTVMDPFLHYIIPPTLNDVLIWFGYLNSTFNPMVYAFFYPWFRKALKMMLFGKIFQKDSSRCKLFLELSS

[10] = biological target: T4, Trace amine-associated receptor 1; assay: Fluorescence-based cell-based high throughput dose response assay to identify agonists of the human trace amine associated receptor 1 (TAAR1).; type: functional
cells [11] = type: functional, cell-based; remark: listed apart in the source
[12] = CEM21 lymphoblast cell cytotoxicity, dose response, cytotoxicity control for viral fusion inhibitor project, CellTiter-Glo luminescence, cherry-picked (AID 652042); type: functional, cell-based;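 note: potency for signal decrease meaning cytotoxicity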
[13] = inhibitors of HIV Env-driven cell fusion, dose response, cherry-pick (AID 652057); type: functional, cell-based
[14] = T. cruzi growth inhibition in host cells, dose response, cell-based, plate reader, dry powder, set 2 (AID 652275); type: functional
[15] = MITF Orthogonal Assay: SK-MEL-5 CTG Assay Measured in Cell-Based System Using Plate Reader - 2084-02_Inhibitor_Dose_DryPowder_Activity_Set7.; type: functional
[16] = MITF: Counter assay: A375 proliferation Measured in Cell-Based System Using Plate Reader - 2084-03_Inhibitor_Dose_DryPowder_Activity_Set8.; type: functional; conditions: A-375

Structure (SMILES): CCOc1ccc(C(CCc2ccccc2)NC(=O)c2ccccc2F)cc1OCC (centres undefined)
AC50 [1]: 4.56 µM (active)

IC50 [2]: 100 µM (inactive) | AC50 [3]: 0.42 µM (active) | IC50 [4]: 34 µM (active)
Structure (SMILES): O=C(Nc1ccc(N2CCCCCC2)cc1)c1ccc[nH]1

IC50 (Albumin): > 94.1 µM (inactive) | IC50 [5]: 20.2 µM (inactive) | IC50 [6]: 4.21 µM (active) | IC50 (Steroidogenic factor 1): 13 µM (inactive) | IC50 [7]: 26 µM (inactive)
Structure (SMILES): COc1ccc(NC(=O)CSc2sc3c(O)cc(=O)[nH]c3c2C#N)c(OC)c1

Structure (SMILES): O=C(CC1CCCC1)N[C@H](C(=O)N1CCC[C@H]1C(=O)NCCc1ccccc1Cl)c1ccccc1
IC50 (cells [8]): > 29.9 µM (inactive) | IC50 [9]: 6.57 µM (active) | EC50 [10]: 2.2 µM (active) | EC50 (cells [11]): > 29.9 µM (inactive)

Structure (SMILES): COc1ccc2c3c([nH]c2c1)[C@H](CO)N(C(=O)Nc1cccc(F)c1)CC31CCN(S(=O)(=O)c2ccccc2)CC1
AC50 [12]: 19.4 µM (active) | AC50 [13]: 25.4 µM (active)

Structure (SMILES): CC(C)N1CC2(CN(Cc3ccccn3)C2)Oc2c(NC(=O)c3ccncc3)cccc2C1=O
AC50 [14]: 1.37 µM (active)

Structure (SMILES): O=C1C=C(NC2CCCCC2)C(=O)c2ccccc21
AC50 [15]: 18.9 µM (active) | AC50 [16]: > 70 µM (inactive)

Structure (SMILES): COCCNC(=O)c1cc2c(c(-c3cccc(C#CCN(C)C)c3)n1)[C@@H](CCO)N([S+]([O-])C(C)(C)C)C2 (some centres undefined)
AC50 [14]: 4.21 µM (active)
